# Experimental data reported in patent US20050004007A1, “Promotion of adoptosis in cancer cells by co-administration of cyclin dependent kinase inhibitiors and cellular differentiation agents” (priority 2000, published 2005).
# Columns and labels:
# Type in all cases: cell-based, human
# U937 cells [1] = test: CD11b surface differentiation marker expression (flow cytometry); details: 1 mM SB, 100 nM FP, 48 h
# Method: Differentiation studies. Expression of the monocytic differentiation marker, CD11b, was monitored by direct immunofluorescence staining and flow cytometric analysis as previously described [Freemerman et al. 1997]. Following drug treatment, suspension and adherent cells were enumerated by a Coulter Counter and 2×10^6 cells were pelleted by centrifugation. The supernatant was aspirated and the cells were resuspended in 300 μl of ice-cold PBS. Two 100 μl aliquots from each sample were then combined with either phycoerythrin-1 (10 μl) or the IgG control. Samples were incubated for 20 min at 4° C. and diluted in PBS (1 ml). Sample data were collected using a Becton Dickinson FACScan flow cytometer and analyzed with Verity Winlist Software (Verity; Topsham, Me.). […] U937 cells were transfected with a full-length p21^WAF1/CIP1 promoter (base pairs 1-2326) as described by Chinery et al. [Chinery et al. 1997] utilizing electroporation (Eppendorf Multiporator, 620V, 60 μs) in hypoosmolar buffer. In each experiment, pSV-βgal (Promega), containing the β-galactosidase gene under the control of the constitutively active SV40 promoter and enhancer, was co-transfected with the luciferase reporter at a ratio of 1:5 (w/w) to normalize for transfection efficiency. The cells were incubated overnight in complete media and treated with 10 nM PMA, 100 nM FP, or 10 nM PMA/100 nM FP for 3 or 6 h. At indicated times, cells were washed in serum-free media, resuspended in 0.25M Tris-HCl pH 7.8, lysed by rapid freeze-thaw, centrifuged and the supernatant frozen at −70° C. Lysates (20 μL) were mixed with luciferase assay reagent (100 μL) and monitored for 20 seconds in a luminometer (Monolight 2010). For β-galactosidase activity, lysates (50 μL) were mixed in triplicate with an equal volume of […] assay buffer (2×) in a 96-well plate and incubated overnight. The reaction was terminated by addition of NaCO3 and absorbance was measured at 405 nm in a Vmax plate reader (Molecular Devices). Activity was determined by comparison to a standard curve. […]
# Bcl-2 = test: Western analysis of Bcl-2 cleavage in U937 cells; details: SB 1 mM, FP 100 nM, 12 and 24 hr
# Method: Alternatively, whole cell-pellets were washed twice in PBS, resuspended in PBS, and lysed by the addition of I volume of loading buffer. Lysates were boiled for 10 min, centrifuged at 12,800 g for 5 min and quantified using Coomassie protein assay reagent (Pierce, Rockfold, Ill.). 25 μg of total proteins per point were separated by SDS-PAGE and electro-blotted to nitrocellulose. The blots were blocked in 5% non-fat milk in PBS-T and probed for 1 h with the appropriate dilution of primary antibody. Blots were washed 3×10 min in PBS-T and then incubated with a 1:2000 dilution of peroxidase-conjugated secondary antibody for 1 h at room temperature. Blots were again washed 3×10 min in PBS-T and then developed by enhanced chemiluminesence. Where indicated, blots were stripped and re-probed with antibodies directed against actin. […]
# U937 cells [2] = test: loss of mitochondrial membrane potential (DiOC6 uptake, flow cytometry); details: for percentage of cells displaying a loss of Δψm: 100 nM FP, 1 mM SB, 12 or 24 hr
# Method: Assessment of mitochondrial membrane potential. At designated times, 1 ml aliquots of cells (2×10^5) were harvested and incubated with 40 nM DiOC6 for 15 minutes at 25° C. as previously described [Zamzami et al 1995]or at 37° C. Samples were analyzed using a Becton Dickinson FACScan flow cytometer (excitation λ=488 nm; emission λ=525 nm). […] Data acquisition and analysis was performed using […] Software (Becton Dickinson, Mansfield, Mass.).
# p21WAF1/CIP1 = test: Western analysis of p21WAF1/CIP1 expression in U937 cells; details: for p21WAF1/CIP1 levels: 1 mM SB, 100 nM FP, 1-24 hr
# Method: Western analysis. Equal quantities of protein (15 μg/condition for MAPK, 40 μg/condition for cytochrome c, or 25 μg/condition) were separated by SDS-PAGE [underphosporylated pRB (7.5%), poly(ADP-ribose)polymerase or PARP (8.0%), p44/p42 MAPK (10%), p21, p27, procaspase 3 (12%), and cytochrome c (15%)] and electroblotted onto nitrocellulose. Western analysis of p44/p42 MAPK protein was performed according to the manufacturer's instructions (New England Biolabs); otherwise, studies were performed as previously described [Wang et al, 1998]. Briefly, U937 cells (5×10^6) were pelleted by centrifugation, resuspended in 50 μl PBS, lysed by the addition of 2× Laemmli buffer and boiled for 5 min. Proteins were quantified with Coomassie protein assay reagent. Blots were blocked in PBS-T/5% milk, washed twice with PBS-T, and incubated overnight at 4° C. with the appropriate primary antibody. The blots were washed with PBS-T and incubated with a horseradish-peroxidase conjugated secondary antibody diluted appropriately in PBS-T/5% mill. Following incubation, blots were developed by enhanced chemiluminescence exposure to Kodak X-OMAT film (Eastman Kodak Co., Rochester, N.Y.) and reprobed with antibodies directed against actin to control for equal loading of protein.
# Alternatively, whole cell-pellets were washed twice in PBS, resuspended in PBS, and lysed by the addition of I volume of loading buffer. Lysates were boiled for 10 min, centrifuged at 12,800 g for 5 min and quantified using Coomassie protein assay reagent (Pierce, Rockfold, Ill.). 25 μg of total proteins per point were separated by SDS-PAGE and electro-blotted to nitrocellulose. The blots were blocked in 5% non-fat milk in PBS-T and probed for 1 h with the appropriate dilution of primary antibody. Blots were washed 3×10 min in PBS-T and then incubated with a 1:2000 dilution of peroxidase-conjugated secondary antibody for 1 h at room temperature. Blots were again washed 3×10 min in PBS-T and then developed by enhanced chemiluminesence. Where indicated, blots were stripped and re-probed with antibodies directed against actin.
# Primary antibodies for both p21^WAF1/CIP1 and p27^KIP1 (Transduction Laboratories, Lexington, Ky.) were used in a 1:1000 dilution; PARP (1:1000; Oncogene Research Products, Cambridge, Mass.); pro-caspase 3 (1:1000; Transduction Laboratories); cytochrome c (1:2000; Pharmingen); bcl-2 (1:2000; DAKO, Denmark); bax (1:1000; Santa Cruz Biotechnology, Inc., Santa Cruz, Calif.); bid (1:1000; Cell Signaling, Beverly, Mass.); XIAP (1:1000; Cell Signaling); Mcl-1 (1:1000; Pharmingen); bak (1:1000; Calbiochem); c-Myc (1:1000; Pharmingen, San Diego, Calif.); actin (1:2000; Sigma Chemicals, St. Louis, Mo.); cyclins-D1, -A and -E (1:1000; Pharmingen); pRb, underP-pRb, pRb-CDK2 and pRb-CDK4 (all 1:1000; Pharmingen); Ac-H3 and Ac-H4 (both 1:1000; Upstate Biotechnology, Lake Placid, N.Y.); E2F-1 (Upstate Biotechnology). Secondary antibodies conjugated to horseradish peroxidase were obtained from Kirkegaard and Perry Laboratories, Inc. (Gaithersburg, Md.). Coomassie protein assay reagent was purchased from Pierce (Rockford, Ill.), and an enhanced chemiluminescence kit was obtained from New England Nuclear (Boston, Mass.). The pan-caspase inhibitor BOC-D-fmk and the caspase 8 inhibitor Z-IETD-fmk were purchased from Enzyme System Products (Livermore, Calif.) All other chemicals or reagents were purchased from Sigma.
SMILES,expression of the differentiation marker CD11b (U937 cells [1]),cleavage of Bcl-2 (rapidly migrating species) (Bcl-2),percentage of cells displaying a loss of Δψm (U937 cells [2]),loss of mitochondrial membrane potential (Δψm) (U937 cells [2]; 1 and 1.5 μM SAHA and FP (100 nM)),"loss of mitochondrial membrane potential (Δψm) (U937 cells [2]; FP 100 nM, PMA 10 nM, 4-8 h exposure)","p21WAF1/CIP1 expression (p21WAF1/CIP1; 10 nM PMA, FP 50-100 nM, 24 h)",p21WAF1/CIP1 levels (p21WAF1/CIP1)
"CN1CC[C@H](c2c(O)cc(O)c3c(=O)cc(-c4ccccc4Cl)oc23)[C@H](O)C1 [FP, Flavopiridol]",not accompanied by an increase in CD11b expression,faintly discerned,modest increase,no effect,reductions were noted,no effect,did not modify
"CCCC(=O)[O-].[Na+] [SB, sodium butyrate]",increased expression of the differentiation marker CD11b,faintly discerned,no effect,,,,time-dependent increase
